These results are taken from patent US6534056B1, “Therapeutic and diagnostic uses of protein tyrosine phosphatase TC-PTP” (McGill University, priority 1998, dated 2003).

One experiment deals with EFM7+/+ cells. Kind of experiment: Survival (MTT conversion) 24 h after methyl methane-sulfonate treatment, wild-type cell line. Type of experiment: cell-based, murine. The following applies: 5 μM MMS, 24 h after treatment, FIG. 5D. The protocol: (§1) Cell proliferation and survival. Primary MEF+/+ and −/−, and TC-PTP+/+ and TC-PTP−/− cell, lines were seeded in 24-well cell culture plates at a density of […] in DMEM with 10% FBS. Cell number was determined after trypsinization by trypan blue exclusion or by MTT assay (Mosmann (1983) J. Immunol. Methods. 62:55-63) at day 1, 3, 5 and 7 after plating. Cells were treated with gamma- or UV-irradiation at doses indicated using a Gammacell 1000 (Atomic Energy of Canada) with a 137Cs source and Stratalinker (Stratagene) respectively. After irradiation, the cells were plated in triplicate on 24-well plates. Survival was evaluated by MTT viability assays 48 hr post-radiation.
(§2) The function of cell cycle checkpoints is to verify the physical status of the genomic DNA. […] To assess the effects of DNA-damaging agents such as γ-radiation, UV-C radiation and methyl methane-sulfonate (MMS) treatment on TC-PTP−/− cells, we first evaluated at different times after treatment, the effect of 1000 rads of γ-radiation on the survival of the EFM7+/+, EFM3+/− and EFM4−/− cells. […] Conversion of MTT was evaluated as a measure of survival at 8, 24 and 48 h after the treatment and it is expressed as the percentage of OD570 measurements of treated to untreated wells. […]
(§3) Another DNA-damaging agent used was MMS, which is a DNA alkylating agent that results in single-strand breaks. […] Results are expressed as in A.

The subject of the next experiment is EFM4−/− cells. The experiment can be described thus: Survival (MTT conversion) 24 h after methyl methane-sulfonate treatment, TC-PTP knock-out cell line. The class given is cell-based, murine. The following applies: 5 μM MMS, 24 h after treatment, FIG. 5D. The protocol:
as §1, §2, §3

With `COS(C)(=O)=O` [MMS, methyl methane-sulfonate], the entries for the “viability after MMS treatment” value in the experiment with EFM7+/+ cells and with EFM4−/− cells were “slight decrease” and “strong decrease in the viability”, respectively.
